Data published in the NIST ThermoML archive (doi:10.1016/j.jct.2011.08.019).
Where “and” joins values, the source holds several entries; their conditions need not be identical. Equal values may be shown once. ± gives the expanded uncertainty stated by the source.

Experiment: molar heat capacity at constant pressure
Settings: 101.33 kPa, Liquid, Small sample (50 mg) DSC

CCCC[P+](C)(CCCC)CCCC.COS(=O)(=O)[O-] [tributylmethylphosphonium methyl sulfate]
Settings	molar heat capacity at constant pressure
343.15 K	668.1 ± 68 J/K/mol and 660.8 ± 67 J/K/mol
348.15 K	672 ± 68 J/K/mol and 665.4 ± 67 J/K/mol
353.15 K	676.3 ± 68 J/K/mol and 669.7 ± 68 J/K/mol
358.15 K	681.2 ± 69 J/K/mol and 674.3 ± 68 J/K/mol
363.15 K	685.8 ± 69 J/K/mol and 678.9 ± 69 J/K/mol
368.15 K	690.4 ± 70 J/K/mol and 683.8 ± 69 J/K/mol
373.15 K	695.3 ± 70 J/K/mol and 687.4 ± 69 J/K/mol
378.15 K	698.3 ± 70 J/K/mol and 692.4 ± 70 J/K/mol
383.15 K	703.2 ± 71 J/K/mol and 697.3 ± 70 J/K/mol
388.15 K	707.2 ± 71 J/K/mol and 702.2 ± 71 J/K/mol
393.15 K	711.1 ± 72 J/K/mol and 705.5 ± 71 J/K/mol
398.15 K	714.4 ± 72 J/K/mol and 711.1 ± 72 J/K/mol
403.15 K	715 ± 72 J/K/mol and 715.4 ± 72 J/K/mol
408.15 K	720 ± 73 J/K/mol and 718.6 ± 73 J/K/mol
413.15 K	726.2 ± 73 J/K/mol and 721.3 ± 73 J/K/mol
418.15 K	729.2 ± 74 J/K/mol and 723.9 ± 73 J/K/mol
423.15 K	733.1 ± 74 J/K/mol and 728.8 ± 74 J/K/mol
428.15 K	736.4 ± 74 J/K/mol and 732.4 ± 74 J/K/mol
433.15 K	738.4 ± 75 J/K/mol and 737.4 ± 74 J/K/mol
438.15 K	743.3 ± 75 J/K/mol and 741.6 ± 75 J/K/mol
443.15 K	745.9 ± 75 J/K/mol and 744.6 ± 75 J/K/mol
448.15 K	748.9 ± 76 J/K/mol and 747.6 ± 76 J/K/mol
453.15 K	751.8 ± 76 J/K/mol and 750.8 ± 76 J/K/mol
458.15 K	754.4 ± 76 J/K/mol and 754.1 ± 76 J/K/mol
463.15 K	757.4 ± 76 J/K/mol and 756.1 ± 76 J/K/mol

CCn1cc[n+](C)c1.O=S(=O)([N-]S(=O)(=O)C(F)(F)F)C(F)(F)F
Settings	molar heat capacity at constant pressure
343.15 K	531 ± 54 J/K/mol and 533.4 ± 54 J/K/mol and 533.7 ± 54 J/K/mol
348.15 K	531.8 ± 54 J/K/mol and 534.1 ± 54 J/K/mol and 534.9 ± 54 J/K/mol
353.15 K	533 ± 54 J/K/mol and 536.1 ± 54 J/K/mol
358.15 K	537.3 ± 54 J/K/mol and 537.7 ± 54 J/K/mol and 534.9 ± 54 J/K/mol
363.15 K	536.1 ± 54 J/K/mol and 538.4 ± 54 J/K/mol and 539.2 ± 54 J/K/mol
368.15 K	537.7 ± 54 J/K/mol and 539.6 ± 54 J/K/mol and 540.4 ± 55 J/K/mol
373.15 K	538.8 ± 54 J/K/mol and 541.6 ± 55 J/K/mol and 542.4 ± 55 J/K/mol
378.15 K	540.8 ± 55 J/K/mol and 542.7 ± 55 J/K/mol and 543.5 ± 55 J/K/mol
383.15 K	541.6 ± 55 J/K/mol and 543.9 ± 55 J/K/mol
388.15 K	542.7 ± 55 J/K/mol and 545.1 ± 55 J/K/mol and 545.5 ± 55 J/K/mol
393.15 K	544.7 ± 55 J/K/mol and 546.7 ± 55 J/K/mol
398.15 K	545.5 ± 55 J/K/mol and 547.4 ± 55 J/K/mol and 548.2 ± 55 J/K/mol
403.15 K	547.4 ± 55 J/K/mol and 549.4 ± 56 J/K/mol
408.15 K	548.6 ± 55 J/K/mol and 550.2 ± 56 J/K/mol and 549.8 ± 56 J/K/mol
413.15 K	549.4 ± 56 J/K/mol and 552.1 ± 56 J/K/mol and 550.2 ± 56 J/K/mol
418.15 K	550.6 ± 56 J/K/mol and 552.5 ± 56 J/K/mol and 551.7 ± 56 J/K/mol
423.15 K	551.4 ± 56 J/K/mol and 552.9 ± 56 J/K/mol and 552.5 ± 56 J/K/mol
428.15 K	552.1 ± 56 J/K/mol and 553.7 ± 56 J/K/mol and 552.9 ± 56 J/K/mol
433.15 K	552.5 ± 56 J/K/mol and 554.9 ± 56 J/K/mol and 555.3 ± 56 J/K/mol
438.15 K	554.1 ± 56 J/K/mol and 556.1 ± 56 J/K/mol and 555.7 ± 56 J/K/mol
443.15 K	554.9 ± 56 J/K/mol and 556.4 ± 56 J/K/mol and 556.1 ± 56 J/K/mol
448.15 K	555.7 ± 56 J/K/mol and 557.2 ± 56 J/K/mol
453.15 K	556.4 ± 56 J/K/mol and 558.4 ± 56 J/K/mol and 556.8 ± 56 J/K/mol
458.15 K	557.6 ± 56 J/K/mol and 558.4 ± 56 J/K/mol and 558 ± 56 J/K/mol
463.15 K	557.6 ± 56 J/K/mol and 558.8 ± 56 J/K/mol

CCCCCCCCCCCCCC[P+](CCCCCC)(CCCCCC)CCCCCC.[Cl-] [trihexyl(tetradecyl)phosphonium chloride]
Settings	molar heat capacity at constant pressure
338.15 K	835 ± 84 J/K/mol and 833.5 ± 84 J/K/mol and 834 ± 84 J/K/mol
343.15 K	838.7 ± 85 J/K/mol and 837.1 ± 84 J/K/mol and 837.6 ± 85 J/K/mol
348.15 K	842.8 ± 85 J/K/mol [middle of 4 runs]
353.15 K	850.6 ± 86 J/K/mol and 848.5 ± 86 J/K/mol and 849.1 ± 86 J/K/mol
358.15 K	857.9 ± 87 J/K/mol and 855.3 ± 86 J/K/mol and 854.8 ± 86 J/K/mol
363.15 K	863.6 ± 87 J/K/mol and 861.5 ± 87 J/K/mol and 860.5 ± 87 J/K/mol
368.15 K	870.9 ± 88 J/K/mol and 868.3 ± 88 J/K/mol and 867.8 ± 88 J/K/mol
373.15 K	876.6 ± 88 J/K/mol and 874.5 ± 88 J/K/mol and 874 ± 88 J/K/mol
378.15 K	881.8 ± 89 J/K/mol [middle of 4 runs]
383.15 K	889.6 ± 90 J/K/mol and 886.5 ± 90 J/K/mol and 888 ± 90 J/K/mol
388.15 K	893.7 ± 90 J/K/mol [middle of 4 runs]
393.15 K	901 ± 91 J/K/mol and 899.4 ± 91 J/K/mol and 898.4 ± 91 J/K/mol
398.15 K	905.2 ± 91 J/K/mol [middle of 4 runs]
403.15 K	910.3 ± 92 J/K/mol [middle of 4 runs]
408.15 K	917.6 ± 93 J/K/mol and 915 ± 92 J/K/mol and 916.1 ± 92 J/K/mol
413.15 K	922.8 ± 93 J/K/mol [middle of 4 runs]
418.15 K	928 ± 94 J/K/mol [middle of 4 runs]
423.15 K	933.2 ± 94 J/K/mol and 931.1 ± 94 J/K/mol and 932.7 ± 94 J/K/mol
428.15 K	937.9 ± 95 J/K/mol [middle of 4 runs]
433.15 K	944.1 ± 95 J/K/mol [middle of 4 runs]
438.15 K	948.8 ± 96 J/K/mol [middle of 4 runs]
443.15 K	952.4 ± 96 J/K/mol and 953.4 ± 96 J/K/mol and 951.4 ± 96 J/K/mol
448.15 K	957.1 ± 97 J/K/mol [middle of 4 runs]
453.15 K	961.2 ± 97 J/K/mol [middle of 4 runs]
458.15 K	965.4 ± 98 J/K/mol [middle of 4 runs]
463.15 K	968 ± 98 J/K/mol [middle of 4 runs]
